From patent US8378104B2 (OSI Pharmaceuticals, LLC, priority 2010, dated 2013)
Where a name gives a salt, the structure may show the parent alone.

Legend:
TAK1-TAB1 fusion protein = molecular target: T1, TAK1-TAB1 fusion protein (Homo sapiens, UniProt O43318); experiment: TAK1 biochemical assay (AlphaScreen, GST-MAP2K7 substrate); conditions: TAK1-TAB1 fusion protein, GST-MAP2K7 substrate; read-out: mean TAK1 IC50 (Col. A)
T1 construct: purchased Carna
T1 sequence (O43318 with tags, fused parts or gaps limits assumed): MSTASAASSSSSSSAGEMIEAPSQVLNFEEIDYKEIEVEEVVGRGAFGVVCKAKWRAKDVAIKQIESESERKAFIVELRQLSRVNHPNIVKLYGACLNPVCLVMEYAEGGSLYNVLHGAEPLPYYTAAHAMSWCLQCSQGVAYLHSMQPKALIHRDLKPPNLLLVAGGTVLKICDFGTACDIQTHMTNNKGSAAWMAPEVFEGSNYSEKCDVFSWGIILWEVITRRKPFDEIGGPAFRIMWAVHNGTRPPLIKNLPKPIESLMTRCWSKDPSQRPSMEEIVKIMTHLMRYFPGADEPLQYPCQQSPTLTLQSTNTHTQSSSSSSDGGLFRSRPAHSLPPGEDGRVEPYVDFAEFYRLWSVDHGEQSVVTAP

pJNK in HCT-116 cells = experiment: Phospho-JNK (Thr183/Tyr185) Meso Scale ELISA assay, TNFα-stimulated HCT-116 cells; assay type: cell-based; conditions: Homo sapiens, read-out: mean HCT-116 pJNK ELISA IC50 (Col. B)
Procedure, shortened: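 Meso Scale ELISA read of phospho-JNK (Thr183/Tyr185) in lysed HCT-116 cells. Cells were serum-reduced to 1% FCS for 2 hours, exposed to test drug for 4 hrs at 37° C, then given 10 ng/mL TNFα (final) for 10 minutes before lysis.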

Row | Compound | IC50 (TAK1-TAB1 fusion protein) | IC50 (pJNK in HCT-116 cells)
1 | CNc1ncc(-c2cnn(C3CCN(C(C)=O)CC3)c2)c2cc(-c3cccc4nnsc34)oc12 [Example 278, 1-(4-{4-[2-(1,2,3-benzothiadiazol-7-yl)-7-(methylamino)furo[2,3-c]pyridin-4-yl]-1H-pyrazol-1-yl}piperidin-1-yl)ethanone] | < 100 nM | < 100 nM
2 | Nc1ncc(-c2cnn(C3CCN(C(=O)CCN4CCCCC4)CC3)c2)c2cc(-c3csc4cnccc34)oc12 [Example 332, 1-{4-[4-(7-amino-2-thieno[2,3-c]pyridin-3-yl-furo[2,3-c]pyridin-4-yl)-pyrazol-1-yl]-piperidin-1-yl}-3-piperidin-1-yl-propan-1-one] | < 100 nM | 100 to 1000 nM
3 | COCc1nc2cccc(-c3cc4c(-c5cnn([C@H]6CC[C@H](O)CC6)c5)cnc(N)c4o3)c2s1 [Example 349, trans-4-(4-{7-amino-2-[2-(methoxymethyl)-1,3-benzothiazol-7-yl]furo[2,3-c]pyridin-4-yl}-1H-pyrazol-1-yl)cyclohexanol Trifluoroacetate (salt)] | < 100 nM | < 100 nM
4 | CNc1nc2cccc(-c3cc4c(-c5cnn(C6CCN(C(C)=O)CC6)c5)cnc(N)c4o3)c2s1 [Example 350, 1-[4-(4-{7-amino-2-[2-(methylamino)-1,3-benzothiazol-7-yl]furo[2,3-d]pyridin-4-yl}-1H-pyrazol-1-yl)piperidin-1-yl]ethanone trifluoroacetate] | < 100 nM | < 100 nM
5 | CC(=O)N1[C@@H]2CC[C@H]1C[C@H](n1cc(-c3cnc(N)c4oc(-c5cccc6cnsc56)cc34)cn1)C2 [Example 327, 1-[(3-exo)-3-{4-[7-amino-2-(1,2-benzisothiazol-7-yl)furo[2,3-c]pyridin-4-yl]-1H-pyrazol-1-yl}-8-azabicyclo[3.2.1]oct-8-yl]ethanone] | < 100 nM | < 100 nM
6 | CC(=O)N1CCC(n2cc(-c3cnc(N)c4oc(-c5csc6cnncc56)cc34)cn2)CC1 [Example 261, 1-(4-{4-[7-amino-2-(thieno[2,3-d]pyridazin-3-yl)furo[2,3-c]pyridin-4-yl]-1H-pyrazol-1-yl}piperidin-1-yl)ethanone diformate] | < 100 nM | 100 to 1000 nM
7 | N#Cc1sc2cnccc2c1-c1cc2c(-c3cnn([C@H]4CC[C@H](O)CC4)c3)cnc(N)c2o1 [Example 270, 3-{7-amino-4-[1-(trans-4-hydroxycyclohexyl)-1H-pyrazol-4-yl]furo[2,3-c]pyridin-2-yl}thieno[2,3-c]pyridine-2-carbonitrile trifluoroacetate] | 100 to 1000 nM | < 100 nM
8 | Nc1ncc(-c2cnn([C@H]3CC[C@H](O)CC3)c2)c2cc(-c3cccc4ncsc34)oc12 [Example 231, trans-4-{4-[7-amino-2-(1,3-benzothiazol-7-yl)furo[2,3-c]pyridin-4-yl]-1H-pyrazol-1-yl}cyclohexanol diformate salt] | < 100 nM | < 100 nM
9 | CN1[C@@H]2CC[C@H]1C[C@H](n1cc(-c3cnc(N)c4oc(-c5csc6cnccc56)cc34)cn1)C2 [Example 328, 4-{1-[(3-exo)-8-methyl-8-azabicyclo[3.2.1]oct-3-yl]-1H-pyrazol-4-yl}-2-(thieno[2,3-c]pyridin-3-yl)furo[2,3-c]pyridin-7-amine] | < 100 nM | 100 to 1000 nM
10 | CC(C)(C)OC(=O)N1[C@@H]2CC[C@H]1C[C@H](n1cc(-c3cnc(N)c4oc(-c5csc6cnccc56)cc34)cn1)C2 [Example 299, tert-butyl (3-exo)-3-{4-[7-amino-2-(thieno[2,3-c]pyridin-3-yl)furo[2,3-c]pyridin-4-yl]-1H-pyrazol-1-yl}-8-azabicyclo[3.2.1]octane-8-carboxylate] | 100 to 1000 nM | 100 to 1000 nM
11 | CCNc1nc2cccc(-c3cc4c(-c5cnn(C6CCN(C(C)=O)CC6)c5)cnc(N)c4o3)c2s1 [Example 354, 1-[4-(4-{7-amino-2-[2-(ethylamino)-1,3-benzothiazol-7-yl]furo[2,3-d]pyridin-4-yl}-1H-pyrazol-1-yl)piperidin-1-yl]ethanone trifluoroacetate] | < 100 nM | < 100 nM
12 | CC(=O)N1CCC(n2cc(-c3cnc(N)c4oc(-c5c(C#N)sc6cnccc56)cc34)cn2)CC1 [Example 264, 3-{4-[1-(1-acetylpiperidin-4-yl)-1H-pyrazol-4-yl]-7-aminofuro[2,3-c]pyridin-2-yl}thieno[2,3-c]pyridine-2-carbonitrile Trifluoroacetate] | 100 to 1000 nM | < 100 nM
13 | COc1nn([C@H]2CC[C@H](O)CC2)cc1-c1cnc(N)c2oc(-c3cccc4nnsc34)cc12 [Example 347, trans-4-{4-[7-amino-2-(1,2,3-benzothiadiazol-7-yl)furo[2,3-c]pyridin-4-yl]-3-methoxy-1H-pyrazol-1-yl}cyclohexanol diformate salt] | < 100 nM | < 100 nM
14 | Nc1ncc(-c2cnn([C@@H]3C[C@H]4CC[C@@H](C3)N4)c2)c2cc(-c3csc4cnccc34)oc12 [Example 320, 4-{1-[(3-exo)-8-azabicyclo[3.2.1]oct-3-yl]-1H-pyrazol-4-yl}-2-(thieno[2,3-c]pyridin-3-yl)furo[2,3-c]pyridin-7-amine] | < 100 nM | 100 to 1000 nM
15 | CC(=O)N1CCC(n2cc(-c3cnc(N)c4oc(-c5nn(C)c6cnccc56)cc34)cn2)CC1 [Example 363, 1-(4-{4-[7-amino-2-(1-methyl-1H-pyrazolo[3,4-c]pyridin-3-yl)furo[2,3-c]pyridin-4-yl]-1H-pyrazol-1-yl}piperidin-1-yl)ethanone trifluoroacetic acid salt] | < 100 nM | 100 to 1000 nM
16 | Nc1ncc(-c2cnn([C@@H]3C[C@H]4CC[C@@H](C3)N4)c2)c2cc(-c3cccc4cnsc34)oc12 [Example 321, 4-{1-[(3-exo)-8-azabicyclo[3.2.1]oct-3-yl]-1H-pyrazol-4-yl}-2-(1,2-benzisothiazol-7-yl)furo[2,3-c]pyridin-7-amine] | < 100 nM | 100 to 1000 nM
17 | COCCCn1cc(-c2cnc(N)c3oc(-c4csc5cnccc45)cc23)cn1 [Example 342, 4-[1-(3-methoxy-propyl)-1H-pyrazol-4-yl]-2-thieno[2,3-c]pyridin-3-yl-furo[2,3-c]pyridin-7-ylamine] | 100 to 1000 nM | 100 to 1000 nM
18 | Nc1ncc(-c2cnn([C@H]3CC[C@H](O)CC3)c2)c2cc(-c3c(F)ccc4nnsc34)oc12 [Example 272, trans-4-{4-[7-amino-2-(6-fluoro-1,2,3-benzothiadiazol-7-yl)furo[2,3-c]pyridin-4-yl]-1H-pyrazol-1-yl}cyclohexanol diformate salt] | < 100 nM | < 100 nM
